Experiments:
melanoma metastasis = details: mice; literature reports; cited from earlier work
[1] = system: B16N murine melanoma cells; test: Matrigel transwell invasion assay, B16N cells; type: cell-based; set-up: invasion (Matrigel transwell): dose or concentration left out as unconfirmed
Experimental: (§1) Transwell Migration Assays—Transwell migration assays were performed as previously described (Hooper, R., et al., 2015, Molecular & Cellular Biology, 35:2790-2798). Briefly, Matrigel® transwell chambers (Corning, Bedford, MA) were hydrated with serum-free OptiMEM for 2 hours (37° C., 5% CO2) prior to the addition of 2,500 cells/well. Growth optimal media was placed on the bottom of the chamber prior to incubation (20 hours; 37° C., 5% CO2). After incubation, media was removed, and edges were cleaned before methanol fixation and staining with crystal violet (0.5%, 2 min). Images were taken by EVOS cell imager and quantified on ImageJ.

[2] = system: WM983 human melanoma cells; test: Matrigel transwell invasion assay, WM983 cells; type: cell-based; set-up: invasion (Matrigel transwell): dose or concentration left out as unconfirmed
Experimental: as §1

[3] = system: patient melanoma surgical explant cells; test: Matrigel transwell invasion assay, patient explant cells; type: cell-based, human; details: TAK475 10 μM, compactin 2 μM, IA65 2 μM or OSMI1 40 μM; 20 hours
Experimental: as §1
Isolation of Cells from Patient Surgical Explants—Tissue was incubated in DMEM containing Liberase® TL (Roche Applied Science; 37° C., 30 min). Following incubation, tissue was cut using a sharp razor and dissociated through 50 μM Medicon screens (Becton Dickinson Biosciences, San Jose, CA; 2 min). Tissue samples were resuspended in DFD media (DMEM, 20% FBS; 500 ug/ml DNAse I, Sigma, St. Louis, MO) and passed through an 18-gauge syringe to break up clumps of cells before filtration (70 μm, Corning, Glendale, AZ, centrifugation and resuspension in DMEM (2% FBS; 1% Gentamycin) for 3 days before use.

[4] = system: melanoma cells (WM983, B16N); test: Viability assay (Trypan Blue); type: cell-based; details: 2 μM IA65 overnight, control, UV2, UV5 cells
Experimental: Viability Assays—500,000 cells were plated in 24 well plates overnight in the absence or presence of 2 μM IA65. Cells were then trypsinized with 0.25% Trypsin-EDTA for 10 minutes at 37° C. Following, cells were treated with 0.4% Trypan Blue and placed in a Bio-Rad slidereader and the number of stained vs. unstained cells compared.

[5] = system: SOCE in patient melanoma surgical explant cells; test: SOCE measurement in cells from patient surgical explants; type: cell-based, human; details: patient explant cells treated with drug in presence of Tg, 15 minutes
Experimental: (§2) SOCE Measurement—Cells grown on glass coverslips were incubated in a cation-safe buffer (107 mM NaCl, 7.2 mM KCl, 1.2 mM MgCl2, 11.5 mM Glucose, 20 mM HEPES-NaOH, 1 mM CaCl2, pH 7.2) and loaded with Fura2-acetoxymethylester (Fura2-AM; 2 μM) for 30 min at 24° C. as previously described (Go, C. K., et al, 2019, Science Signaling, 12; Hooper, R., et al., 2015, Molecular and Cellular Biology, 35:2790-2798). Cells were washed and allowed to de-esterify for a minimum of 30 min at 24° C. Following de-esterification, cells were treated with 2 μM Thapsigargin (SERCA inhibitor) for 10 minutes prior to imaging. Ca^2+ measurements were taken using a Leica DMI 6000B fluorescence microscope controlled by Slidebook software (Intelligent Imaging Innovations, Denver, CO). Fluorescence emission at 505 nm was monitored in response to excitation at alternating 340 nm and 380 nm wavelengths at a frequency of 0.67 Hz; intracellular Ca^2+ measurements are shown at 340/380 nm ratios obtained from groups (2-45 for patient samples, 35-45 for established cell lines) of single cells.
Isolation of Cells from Patient Surgical Explants—Tissue was incubated in DMEM containing Liberase® TL (Roche Applied Science; 37° C., 30 min). Following incubation, tissue was cut using a sharp razor and dissociated through 50 μM Medicon screens (Becton Dickinson Biosciences, San Jose, CA; 2 min). […]

[6] = system: WM983 human melanoma cells; test: Scratch (wound) migration assay, WM983 cells; type: cell-based; details: 2 μM IA65, 0-, 10-, 20-hour
Experimental: Migration Assay—Cells were plated on glass coverslips (Ibidi, Fitchburg, WI) overnight to form a complete monolayer before “wounding” with a p20 pipette tip. Coverslips were placed in an incubation chamber (37° C.; 5% CO2) and monitored by confocal microscopy (Leica SP8 Laser Scanning Microscope). Z-stack brightfield images were obtained every 20 minutes for 20 hours; the % of the wound that was refilled over time was calculated using ImageJ.

[7] = system: SOCE in WM983 human melanoma cells; test: SOCE measurement (Fura2, Tg then Ca2+ re-addition) in WM983 cells; type: cell-based
Experimental: (§3) UV Exposure—Cells were plated on glass coverslips for 24 hours before changing to PBS. Lids were replaced with a thin layer of taut plastic wrap before irradiating with a broadband UV spectrum containing 35% UVA and 65% UVB (with peak emission at 313 nm in the UVB range (De Fabo, E. C., et al, 2004, Cancer Research, 64:6372-6376)). Cells received a total UV dose of 175 J/m^2 over 90 seconds at a rate of 1.94 W/m^2. Approximately 80% of the melanoma cells survive this exposure. Cells were passaged 1:10 every 3 days and cultured under growth optimal conditions for the indicated time period (see Cell Culture below) before subsequent experimentation.
as §2

[8] = system: SOCE in B16N murine melanoma cells; test: SOCE measurement (Fura2, Tg then Ca2+ re-addition) in B16N cells; type: cell-based; details: B16N control, UV2, UV5, O1C44; 2 μM IA65
Experimental: as §3
(§4) SOCE Measurement—Cells grown on glass coverslips were incubated in a cation-safe buffer (107 mM NaCl, 7.2 mM KCl, 1.2 mM MgCl2, 11.5 mM Glucose, 20 mM HEPES-NaOH, 1 mM CaCl2, pH 7.2) and loaded with Fura2-acetoxymethylester (Fura2-AM; 2 μM) for 30 min at 24° C. as previously described (Go, C. K., et al, 2019, Science Signaling, 12; Hooper, R., et al., 2015, Molecular and Cellular Biology, 35:2790-2798). Cells were washed and allowed to de-esterify for a minimum of 30 min at 24° C. […] Ca^2+ measurements were taken using a Leica DMI 6000B fluorescence microscope controlled by Slidebook software (Intelligent Imaging Innovations, Denver, CO). […]

[9] = system: SOCE in UACC257 human melanoma cells; test: SOCE measurement (Fura2, Tg then Ca2+ re-addition) in UACC257 cells; type: cell-based; details: non-SOCE suppressed UACC257 UV5 cells; overnight treatment
Experimental: as §3, §4

SMILES: O=C(O)Cc1cccc(OCCCN(Cc2cccc(C(F)(F)F)c2Cl)CC(c2ccccc2)c2ccccc2)c1 [GW3965]
- melanoma metastasis (melanoma metastasis): suppressed

SMILES: O=C(O)c1ccc(Nc2nc(C(F)(F)F)c(-c3ccccc3)s2)cc1 [IA65, 4-((5-Phenyl-4-(trifluoromethyl)thiazol-2-yl)amino)benzoic acid]
- invasion through Matrigel transwell ([1]; B16N control, UV2, UV5, O1C44, 2 μM IA65): inhibition of invasiveness
- invasion through Matrigel in a transwell assay ([2]; WM983 control, UV2, UV5, 2 μM IA65, 20 hours): failed to invade
- invasion in vitro of patient cells [3]: diminished invasion
- cell viability [4]: no effect
- change in SOCE in patient samples [5]: No significant effect
- UV-induced enhanced cell migration (scratch) [6]: did not have UV-induced enhanced cell migration
- UV-induced SOCE suppression ([7]; UV2 and UV5 WM983 cells, 2 μM IA65, 15 minutes): strikingly reversed UV-induced SOCE suppression
- SOCE ([7]; untreated (non-irradiated) WM983 cells, 2 μM IA65, 15 minutes): no effect
- SOCE (reversal of SOCE suppression) [8]: reversal of SOCE suppression

SMILES: COc1ccccc1[C@@H](NS(=O)(=O)c1ccc2[nH]c(=O)ccc2c1)C(=O)N(Cc1ccco1)Cc1cccs1 [OSMI1]
- invasion (Matrigel transwell) ([1]; SOCE-suppressed B16N cells, siRNA targeting OGT): reduced invasion
- invasion (Matrigel transwell) ([2]; SOCE-suppressed WM983 cells, siRNA targeting OGT): reduced invasion
- invasion in vitro of patient cells [3]: diminished invasion

SMILES: O=S(=O)(c1ccccc1)N(CC(F)(F)F)c1ccc(C(O)(C(F)(F)F)C(F)(F)F)cc1 [T0901317]
- melanoma metastasis (melanoma metastasis): suppressed

SMILES: COc1cccc([C@H]2O[C@H](CC(=O)N3CCC(CC(=O)O)CC3)C(=O)N(CC(C)(C)COC(C)=O)c3ccc(Cl)cc32)c1OC [TAK475]
- SOCE [9]: no change
- UV-induced increases in melanoma invasiveness through Matrigel ([2]; UV5 WM983 cells, transwell, 20 hours): abrogated UV-induced increases in melanoma invasiveness
- invasiveness through Matrigel ([2]; untreated (control) WM983 cells): no effect on invasiveness
- invasion in vitro of patient cells [3]: diminished invasion
- change in SOCE in patient samples [5]: significantly enhanced SOCE
- SOCE ([7]; UV5 WM983 cells, 24 hr treatment): markedly enhanced
- SOCE ([7]; untreated WM983 cells, cholesterol synthesis inhibitor overnight): neither agent significantly affected SOCE
